Here are results for one substance from patent publication US10709764B2, “Use of compounds with thrombopoietic activity to promote bone growth and healing” (Osteofuse, Inc., priority 2010, dated 2020).

Assay [1] concerns critical sized femoral defect. As to the kind of experiment: Mouse critical sized femoral defect with scaffold, x-ray follow-up. The assay is classed as in vivo, C57BL/6 male mice. From the text:
A critical sized femoral defect was created in the right femur of ten-week old C57BL/6 male mice. Our scaffold was inserted into the defect site. […] Referring now to FIG. 6, a critical sized femoral defect was created in the right femur of ten week old C57BL/6 male mice. A scaffold was inserted into the defect site.

In assay [2] the test system is critical sized defect in the rat femur. As to the kind of experiment: Long Evans rat femur gap model, scaffold in 5 mm segmental defect. It counts as in vivo, Long Evans rats. The source says:
A pilot study utilizing the Long Evans rat femur gap model which has been approved by the Laboratory Animal Care and Usage Committee (IACUC) at Indiana University was used to test a new method for repairing bone gaps. In brief, tube shape scaffolds with 4 mm external diameter, 2 mm internal diameter and 5 mm in height were manufactured from poly(propylene) fumarate/tricalcium phosphate. […] In the control group, the scaffolds were left untreated (n=3/group). Segmental defects of 5 mm were created in the right femurs of male Long Evans rats. The defect was filled with a 5 mm scaffold and secured with an intramedullary K-wire placed in retrograde fashion. Femurs were imaged by x-ray to assure proper placement and integrity of the scaffold. The rats were then imaged using x-ray at three week intervals to assess continued healing. At post-operative weeks 6 and 15, rats were euthanized and femurs analyzed by x-ray, microCT, and histology.
At 15 weeks, mineralized callus was seen bridging the two bone ends. In some areas adjacent to the scaffolds, isolated patches of cartilage with hypertrophic chondrocytes were observed, indicating the tissues were undergoing endochondral bone formation.

Assay [3] deals with C57BL/6 bone marrow macrophages (BMMs). As to the kind of experiment: Osteoclast formation from bone marrow macrophages cultured with M-CSF and RANKL, TRAP staining. It counts as cell-based, mouse. Here is the method: FIG. 2. Bar graph showing C57BL/6 bone marrow macrophages (BMMs) were cultured with M-CSF (30 ng/ml) and RANKL (50 ng/ml). While culturing C57BL/6 BMMs with M-CSF and RANKL (no TPO) results in the generation of mature TRAP^+ multinucleated osteoclasts (OCs) (>3 nuclei), culturing these cells with TPO (0.1-100 ng/ml) enhances the number OCs by >2-fold. *p<0.05
FIG. 3A. Representative micrograph of cultures of BMMs stimulated with M-CSF (30 ng/ml) and RANKL (50 ng/ml).
FIG. 3B. Representative micrograph of cultures of BMMs stimulated with M-CSF (30 ng/ml) and RANKL (50 ng/ml).

On to thrombopoietin [TPO], for which the “bridging callus formation (x-ray)” value in assay [1] (2 weeks postoperatively, TPO 1 μg, BMP-2 4 μg in scaffold) was “remain unbridged”; in assay [1] (4-6 weeks postoperatively, TPO 1 μg in scaffold), “have bridged”. Moreover, in assay [1] (4-6 weeks, TPO 1 μg vs BMP-2 4 μg), the “restoration of bone contour compared with BMP-2 scaffolds” value is recorded as “better restores the original contour of the bone”. In assay [2] (10 μg in scaffold, post-operative week 15, n=3/group), the “healing of critical sized defect (microCT)” value is listed as “robustly healed”. Moreover, in assay [2] (10 μg in scaffold, week 15, BMP-2 from an earlier study), the “cortex and trabeculae of the callus compared to callus induced by BMP-2” value is “thicker”. The “remodeling compared with BMP-2” value in assay [2] (15 weeks post-operative, μCT (FIG. 5)) is recorded as “more extensive remodeling”. For the same substance, the “mature multinucleated OCs developed (TRAP staining)” value in assay [3] (TPO 100 ng/ml, M-CSF 30 ng/ml, RANKL 50 ng/ml) is recorded as “Significantly more OCs developed”. In assay [3] (TPO 0.1-100 ng/ml, M-CSF 30 ng/ml, RANKL 50 ng/ml, vs no TPO, p<0.05), the “enhancement of the number of mature TRAP+ multinucleated osteoclasts (OCs)” value is on record as more than 2 fold. Also, the increase of osteoclastogenesis entry in assay [3] (osteoclast progenitors treated with TPO in vitro) is “up to 5 fold”.
